Earlier results in patent US9554996B2, “Compositions and methods for delivery of poorly soluble drugs” (Nanotherapeutics, Inc., priority 2007, dated 2017).
Where a name gives a salt, the structure may show the parent alone.

Conditions: water

## COc1ccc2c3c1O[C@H]1C(=O)CC[C@@]4(O)[C@@H](C2)N(C)CC[C@]314 [oxycodone hydrochloride, oxycodone]
  solubility at neutral pH: 100 mg/ml
